# Assay results reported in patent US8076101B2, “Method of detecting the cystic fibrosis transmembrane conductance regulator (CFTR) at cell exterior” (priority 2003, dated 2011).
# “Also recorded” adds a separate entry of the source. Residues, ends and D or L forms follow the SMILES beside them. *: point of attachment. Cbz = O=C(OCc1ccccc1)*
# Columns and labels:
# Format in all cases: cell-based
# [1] = tested on: ΔF508 CFTR with modified EL2 (XT-ΔF508); test: Quantitative luminescence detection of XT-ΔF508 CFTR at surface of cells in 96 well microtiter plates
# Protocol: FIG. 6. Quantitative detection of CFTR with EL2 epitope (XT-CFTR) at surface of cells grown in 96 well microtiter plates. Cells were washed, fixed and exposed to an antibody recognizing the external epitope, washed again and incubated with a horseradish peroxidase coupled second antibody and then with a peroxidase substrate that becomes luminescent after peroxidation. Luminescent signals in each well were quantitated in either a Packard Microplate Luminescence Counter or a Perkin Elmer VICTOR^2 Multilabel Counter. […] The corresponding quantitative signals are shown below.
# To provide a more facile and quantifiable means of detecting EL2 modified CFTR on the cell surface, cells were plated on 96-well microtiter plates. The amount of surface epitope was measured either by luminometry or time resolved fluorescence. After incubation with a primary unlabeled mouse antibody to the epitope (HA11, Babco) and washing, a secondary horseradish peroxidase coupled antibody recognizing mouse IgG was added followed by peroxidase substrate that luminesces when peroxidized. Luminescence was measured in each well in one of two different luminescence plate readers. A strong signal is obtained in the replicate row of wild-type XT-CFTR expressing cells and signals of strengthening intensity are obtained in rows of XT-ΔF508 cells grown at 28° C. with increasing concentrations of butyrate.
# [2] = tested on: XT-ΔF508 CFTR; test: cyclic AMP stimulated 36Cl efflux (CFTR chloride channel activity); conditions: grown at 28° C. with 2 mM sodium butyrate for 48 h; forskolin (10 μM) and IBMX (1 mM)
# Protocol: FIG. 5. CFTR chloride channel activity as monitored by ^36Cl efflux from cells expressing wild-type CFTR (◯), ΔF508 CFTR without (♦) or with (▴) 2 mM sodium butyrate or no CFTR (□). Cells were preloaded with ^36Cl and then exposed to forskolin (10 μM) and IBMX (1 mM) at time 0. The amounts of ^36Cl radioactivity released from the cells in subsequent 1 min intervals was monitored by scintillation counting.
# To determine the functional capability of the EL2 modified variants, rates of cyclic AMP stimulated ^36Cl efflux from cells expressing them were measured. The rate of efflux from cells expressing wild-type XT-CFTR was similar to that with unmodified wild-type (FIG. 5).
# [3] = tested on: Extope-ΔF508 CFTR; test: Immunofluorescence microscopy of externally labeled Extope-ΔF508 CFTR after re-incubation with protease inhibitors; conditions: re-incubated at 37° C. for 7 hours
# Protocol: FIG. 10B. […] Cell surface Extope-CFTR or Extope-ΔF508 CFTR were labeled with 16B12 as described in FIG. 2A. Cells were re-incubated at 37° C. for 7 hours with either lysosomal inhibitors pepstatin-A and leupeptin (Pep+Leu, each 50 μg/ml) and E64 (3.5 μg/ml) or proteasomal inhibitors lactacystin (50 μM) and MG132 (50 μM) or without drug (control) and stained for immunofluorescence microscopy. Nuclei were stained with propidium iodide.
# Cells were treated with lysosomal inhibitors pepstatin-A and leupeptin as described in FIG. 5B. Extope-ΔF508 CFTR was labeled with 16B12 at the cell surface and detected 7 hours later using goat anti-mouse IgG Alexa Fluor 488 conjugate. Lysosomes were labeled with Lysotracker Red (Molecular Probes).
# [4] = tested on: Extope-CFTR and ΔF508 CFTR; test: Chemiluminescence assay of cell surface Extope-CFTR and ΔF508 CFTR retained after reincubation; conditions: lactacystin 25 μM, reincubated for indicated times, 8 replicates
# Protocol: FIG. 10D. […] Extope-CFTR and ΔF508 CFTR were labeled on intact pre-cooled cells on ice for 30 minutes with 16B12 mAb and cells were reincubated in the presence or absence of lactacystin (25 μM) for indicated times. Cell surface Extope-CFTR was detected in a chemiluminescence assay at indicated times using sheep anti-mouse peroxidase conjugate and chemiluminescence. Each experiment was performed with 8 replicates and standard deviations are indicated.
smiles,measurement,setting,value
CCCC(=O)[O-].[Na+] [sodium butyrate],amount of ΔF508 CFTR with modified EL2 detected at the cell surface (luminescent signal),"[1]; cells grown at 28° C. for 24 h, increasing concentrations of sodium butyrate",Increasing amounts
same,XT-ΔF508 surface luminescence signal relative to wild-type XT-CFTR,"[1]; cells grown at 28° C., maximal butyrate dose",more than half that of the wild-type
same,36Cl efflux from ΔF508 CFTR expressing cells relative to wild-type,[2],more closely approaches those of wild-type; also recorded: nearly as great as from cells expressing wild-type CFTR
CC(C)C[C@H](NC(=O)[C@H]1O[C@@H]1C(=O)O)C(=O)NCCCCN=C(N)N [E64],endocytic turn over of ΔF508-CFTR,[3]; 3.5 μg/ml,inhibit endocytic turn over
CC(=O)N[C@@H](CSC(=O)[C@]1([C@@H](O)C(C)C)NC(=O)[C@H](C)[C@@H]1O)C(=O)O [lactacystin],amount of CFTR retained at the cellular surface,[4],increases the amount of CFTR retained at the cellular surface
same,endocytic turn over of ΔF508-CFTR,[3]; 50 μM,inhibit endocytic turn over
CC(C)C[C@@H](C=O)NC(=O)[C@H](CC(C)C)NC(=O)[C@H](CC(C)C)NC(=O)OCc1ccccc1 [MG132] (Cbz-Leu-Leu-Leu-aldehyde),endocytic turn over of ΔF508-CFTR,[3]; 50 μM,inhibit endocytic turn over
